Test system: 138582-337-R-J1-PDC spheroids with HUVEC/MSC, viability
Assay: Anticancer human tumor 138582-337-R-J1-PDC patient-derived Merkel cell tumor cell line growth inhibition [IpAb]
Settings: for IC50: curve of first compound; for viability, T/C: stronger effect = lower value
Outline: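 Combinations with ipatasertib or abemaciclib were tested on tumour spheroids holding HUVEC (25%) and MSC (15%) alongside 60% malignant cells. Top concentration was at or near clinical Cmax (10 microM if undefined), descending in half-log steps.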

[1] = second compound 0.1 µM, first compound 0.0316 µM
[2] = second compound 0.1 µM, first compound 0.1 µM
[3] = second compound 0.316 µM, first compound 0.0316 µM
[4] = second compound 0.316 µM, first compound 0.1 µM
[5] = second compound 1 µM, first compound 0.0316 µM
[6] = second compound 1 µM, first compound 0.1 µM
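Note: spheroids exposed to compounds for seven days.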
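Throughout, for viability, T/C: 100% = DMSO vehicle control viability.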

**Q.** For `Cn1ncnc1[C@H]1c2n[nH]c(=O)c3cc(F)cc(c23)N[C@@H]1c1ccc(F)cc1` + CCN1CCN(Cc2ccc(Nc3ncc(F)c(-c4cc(F)c5nc(C)n(C(C)C)c5c4)n3)nc2)CC1, which IC50 (second compound 0.01 µM) is on record?
**A.** > 100 nM

**Q.** What about the IC50 (second compound 0.0316 µM) of the same molecule?
**A.** > 100 nM

**Q.** What about the IC50 (second compound 0.1 µM) of the same molecule?
**A.** > 100 nM

**Q.** And the IC50 (second compound 0.316 µM)?
**A.** > 100 nM

**Q.** And the IC50 (second compound 1 µM)?
**A.** > 100 nM

**Q.** And the viability, T/C (second compound 0.01 µM, first compound 0.000316 µM)?
**A.** 102%

**Q.** What about the viability, T/C (second compound 0.01 µM, first compound 0.001 µM) of the same molecule?
**A.** 93.4%

**Q.** And the viability, T/C (second compound 0.01 µM, first compound 0.00316 µM)?
**A.** 91.8%

**Q.** And the viability, T/C (second compound 0.01 µM, first compound 0.01 µM)?
**A.** 80.7%

**Q.** What about the viability, T/C (second compound 0.01 µM, first compound 0.0316 µM) of the same molecule?
**A.** 78.5%

**Q.** And the viability, T/C (second compound 0.01 µM, first compound 0.1 µM)?
**A.** 78.9%

**Q.** What about the viability, T/C (second compound 0.0316 µM, first compound 0.000316 µM) of the same molecule?
**A.** 96.3%

**Q.** What about the viability, T/C (second compound 0.0316 µM, first compound 0.001 µM) of the same molecule?
**A.** 102%

**Q.** What about the viability, T/C (second compound 0.0316 µM, first compound 0.00316 µM) of the same molecule?
**A.** 89.5%

**Q.** What about the viability, T/C (second compound 0.0316 µM, first compound 0.01 µM) of the same molecule?
**A.** 76.5%

**Q.** What about the viability, T/C (second compound 0.0316 µM, first compound 0.0316 µM) of the same molecule?
**A.** 69.8%

**Q.** What about the viability, T/C (second compound 0.0316 µM, first compound 0.1 µM) of the same molecule?
**A.** 66.2%

**Q.** And the viability, T/C (second compound 0.1 µM, first compound 0.000316 µM)?
**A.** 89.7%

**Q.** What about the viability, T/C (second compound 0.1 µM, first compound 0.001 µM) of the same molecule?
**A.** 89.4%

**Q.** What about the viability, T/C (second compound 0.1 µM, first compound 0.00316 µM) of the same molecule?
**A.** 76.7%

**Q.** What about the viability, T/C (second compound 0.1 µM, first compound 0.01 µM) of the same molecule?
**A.** 78.4%

**Q.** What about the viability, T/C [1] of the same molecule?
**A.** 90.8%

**Q.** And the viability, T/C [2]?
**A.** 86.4%

**Q.** And the viability, T/C (second compound 0.316 µM, first compound 0.000316 µM)?
**A.** 85%

**Q.** What about the viability, T/C (second compound 0.316 µM, first compound 0.001 µM) of the same molecule?
**A.** 95.8%

**Q.** What about the viability, T/C (second compound 0.316 µM, first compound 0.00316 µM) of the same molecule?
**A.** 87.2%

**Q.** What about the viability, T/C (second compound 0.316 µM, first compound 0.01 µM) of the same molecule?
**A.** 80.3%

**Q.** What about the viability, T/C [3] of the same molecule?
**A.** 78.3%

**Q.** And the viability, T/C [4]?
**A.** 72.4%

**Q.** And the viability, T/C (second compound 1 µM, first compound 0.000316 µM)?
**A.** 99%

**Q.** What about the viability, T/C (second compound 1 µM, first compound 0.001 µM) of the same molecule?
**A.** 95.7%

**Q.** What about the viability, T/C (second compound 1 µM, first compound 0.00316 µM) of the same molecule?
**A.** 87.3%

**Q.** And the viability, T/C (second compound 1 µM, first compound 0.01 µM)?
**A.** 79.5%

**Q.** And the viability, T/C [5]?
**A.** 90.9%

**Q.** What about the viability, T/C [6] of the same molecule?
**A.** 91.2%

**Q.** Which IC50 (second compound 0.1 µM) does the source give for `C=CC(=O)N1CCN(c2nc(=O)n(-c3c(C)ccnc3C(C)C)c3nc(-c4c(O)cccc4F)c(F)cc23)C(C)C1` (stereo not given) + CC(C)NCC(C(=O)N1CCN(c2ncnc3c2C(C)CC3O)CC1)c1ccc(Cl)cc1 here?
**A.** > 10000 nM

**Q.** And the IC50 (second compound 0.316 µM)?
**A.** > 10000 nM

**Q.** What about the IC50 (second compound 1 µM) of the same molecule?
**A.** > 10000 nM

**Q.** And the IC50 (second compound 3.16 µM)?
**A.** > 10000 nM

**Q.** What about the IC50 (second compound 10 µM) of the same molecule?
**A.** 31.6 nM

**Q.** And the viability, T/C [1]?
**A.** 90.2%

**Q.** What about the viability, T/C [2] of the same molecule?
**A.** 95.5%

**Q.** What about the viability, T/C (second compound 0.1 µM, first compound 0.316 µM) of the same molecule?
**A.** 91.4%

**Q.** What about the viability, T/C (second compound 0.1 µM, first compound 1 µM) of the same molecule?
**A.** 101%

**Q.** What about the viability, T/C (second compound 0.1 µM, first compound 3.16 µM) of the same molecule?
**A.** 115%

**Q.** And the viability, T/C (second compound 0.1 µM, first compound 10 µM)?
**A.** 168%

**Q.** And the viability, T/C [3]?
**A.** 90.6%

**Q.** And the viability, T/C [4]?
**A.** 86.2%

**Q.** What about the viability, T/C (second compound 0.316 µM, first compound 0.316 µM) of the same molecule?
**A.** 83.5%

**Q.** And the viability, T/C (second compound 0.316 µM, first compound 1 µM)?
**A.** 90.1%

**Q.** What about the viability, T/C (second compound 0.316 µM, first compound 3.16 µM) of the same molecule?
**A.** 105%

**Q.** And the viability, T/C (second compound 0.316 µM, first compound 10 µM)?
**A.** 132%

**Q.** And the viability, T/C [5]?
**A.** 71.9%

**Q.** What about the viability, T/C [6] of the same molecule?
**A.** 66.6%

**Q.** What about the viability, T/C (second compound 1 µM, first compound 0.316 µM) of the same molecule?
**A.** 71.4%

**Q.** And the viability, T/C (second compound 1 µM, first compound 1 µM)?
**A.** 74.9%

**Q.** And the viability, T/C (second compound 1 µM, first compound 3.16 µM)?
**A.** 86.6%

**Q.** What about the viability, T/C (second compound 1 µM, first compound 10 µM) of the same molecule?
**A.** 77.5%

**Q.** And the viability, T/C (second compound 3.16 µM, first compound 0.0316 µM)?
**A.** 57.1%

**Q.** And the viability, T/C (second compound 3.16 µM, first compound 0.1 µM)?
**A.** 56.8%

**Q.** What about the viability, T/C (second compound 3.16 µM, first compound 0.316 µM) of the same molecule?
**A.** 59.4%

**Q.** And the viability, T/C (second compound 3.16 µM, first compound 1 µM)?
**A.** 63.4%

**Q.** What about the viability, T/C (second compound 3.16 µM, first compound 3.16 µM) of the same molecule?
**A.** 69%

**Q.** What about the viability, T/C (second compound 3.16 µM, first compound 10 µM) of the same molecule?
**A.** 54%

**Q.** What about the viability, T/C (second compound 10 µM, first compound 0.0316 µM) of the same molecule?
**A.** 38.7%

**Q.** What about the viability, T/C (second compound 10 µM, first compound 0.1 µM) of the same molecule?
**A.** 49.9%

**Q.** What about the viability, T/C (second compound 10 µM, first compound 0.316 µM) of the same molecule?
**A.** 47.9%

**Q.** What about the viability, T/C (second compound 10 µM, first compound 1 µM) of the same molecule?
**A.** 47.6%

**Q.** What about the viability, T/C (second compound 10 µM, first compound 3.16 µM) of the same molecule?
**A.** 52.4%

**Q.** What about the viability, T/C (second compound 10 µM, first compound 10 µM) of the same molecule?
**A.** 32.3%
